Here are results for 14 molecules from BindingDB's records for doi:10.1124/mol.64.6.1295 (Glaxosmithkline, 2003).

For assay [1], the target named is 5-hydroxytryptamine receptor 6 (Rattus norvegicus, UniProt P31388).
The target in assay [2] is 5-hydroxytryptamine receptor 6 (Mus musculus, UniProt Q9R1C8).
Assay [3] has as its target 5-hydroxytryptamine receptor 6 (Homo sapiens, UniProt P50406).

Structures can show the parent of a compound that is named as a salt.

Chain of 5-hydroxytryptamine receptor 6 (Rattus norvegicus, UniProt P31388) (P31388 whole entry): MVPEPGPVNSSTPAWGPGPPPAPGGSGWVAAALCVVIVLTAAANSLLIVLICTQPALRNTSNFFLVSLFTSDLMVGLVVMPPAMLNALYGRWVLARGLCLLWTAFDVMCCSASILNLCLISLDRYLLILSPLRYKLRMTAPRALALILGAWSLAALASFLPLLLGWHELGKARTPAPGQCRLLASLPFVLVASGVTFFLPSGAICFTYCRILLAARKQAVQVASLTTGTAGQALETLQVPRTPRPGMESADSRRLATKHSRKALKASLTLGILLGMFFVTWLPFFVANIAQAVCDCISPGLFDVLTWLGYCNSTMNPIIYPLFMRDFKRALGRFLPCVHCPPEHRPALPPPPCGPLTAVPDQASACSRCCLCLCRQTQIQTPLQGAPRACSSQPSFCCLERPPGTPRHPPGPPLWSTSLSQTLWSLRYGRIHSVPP
Chain of 5-hydroxytryptamine receptor 6 (Homo sapiens, UniProt P50406) (P50406 whole entry): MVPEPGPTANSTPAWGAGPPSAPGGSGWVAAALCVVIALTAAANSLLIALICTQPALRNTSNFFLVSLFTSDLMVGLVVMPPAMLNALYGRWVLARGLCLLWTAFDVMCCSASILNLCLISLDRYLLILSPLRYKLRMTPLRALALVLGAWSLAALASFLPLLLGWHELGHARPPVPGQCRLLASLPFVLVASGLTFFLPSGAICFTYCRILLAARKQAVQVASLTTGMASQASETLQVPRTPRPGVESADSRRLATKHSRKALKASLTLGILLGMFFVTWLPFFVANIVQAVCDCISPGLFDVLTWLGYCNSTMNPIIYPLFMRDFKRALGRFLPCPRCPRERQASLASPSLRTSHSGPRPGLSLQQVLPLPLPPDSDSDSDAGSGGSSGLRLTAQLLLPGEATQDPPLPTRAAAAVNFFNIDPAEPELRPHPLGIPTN
Chain of 5-hydroxytryptamine receptor 6 (Mus musculus, UniProt Q9R1C8) (Q9R1C8 whole entry): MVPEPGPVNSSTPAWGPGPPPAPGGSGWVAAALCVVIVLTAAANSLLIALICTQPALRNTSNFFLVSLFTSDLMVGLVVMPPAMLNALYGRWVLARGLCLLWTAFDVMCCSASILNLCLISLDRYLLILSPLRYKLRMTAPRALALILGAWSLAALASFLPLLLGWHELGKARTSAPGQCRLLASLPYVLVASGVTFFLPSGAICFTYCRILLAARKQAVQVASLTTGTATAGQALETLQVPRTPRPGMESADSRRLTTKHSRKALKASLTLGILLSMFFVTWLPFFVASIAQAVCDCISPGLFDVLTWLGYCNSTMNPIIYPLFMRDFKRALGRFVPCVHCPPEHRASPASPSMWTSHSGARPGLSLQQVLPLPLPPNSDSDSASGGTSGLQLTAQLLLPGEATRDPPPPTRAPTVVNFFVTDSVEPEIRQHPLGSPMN

With `COc1ccc(NS(=O)(=O)c2sc3ccc(Cl)cc3c2C)cc1N1CCNCC1`, the Ki in assay [1] was found to be 0.71 nM; in assay [2] it was 1.23 nM.

Take `CN(C)CCC=C1c2ccccc2CCc2ccccc21`: the Ki turned out to be 182 nM in assay [1], 141 nM in assay [3] and 89.1 nM in assay [2].

Turning to `COc1ccc(NS(=O)(=O)c2ccc(Br)cc2)cc1N1CCN(C)CC1`, the Ki in assay [1] stood at 4.79 nM; in assay [3], 2.82 nM; in assay [2] it was 22.9 nM.

As for `CN1CCN(C2=c3ccccc3=Nc3ccc(Cl)cc3N2)CC1` [6-chloro-10-(4-methylpiperazin-1-yl)-2,9-diazatricyclo[9.4.0.0^{3,8}]pentadeca-1,3(8),4,6,10,12,14-heptaene], the Ki in assay [2] was 6.46 nM.

In assay [2], `CN1CCN2c3ccccc3Cc3ccccc3C2C1` (stereo not drawn) [MIANSERIN HYDROCHLORIDE] registered a Ki of 3.24 nM.

As to `COc1ccc(S(=O)(=O)Nc2cc(Br)cc(F)c2Br)cc1N1CCNCC1` [N-(2,5-dibromo-3-fluorophenyl)-4-methoxy-3-(piperazin-1-yl)benzenesulfonamide], the Ki in assay [1] is 1.41 nM; in assay [2], 61.7 nM.

For `CCN(CC)C(=O)C1C=C2c3cccc4[nH]cc(c34)CC2N(C)C1` (stereo not drawn) [NSC_3981], the Ki turned out to be 2.63 nM in assay [1] and 2.82 nM in assay [2].

Consider `CNc1cc(NS(=O)(=O)c2ccc(N)cc2)nc(NC)n1` [Ro-04-6790], for which the Ki in assay [1] is 28.8 nM; in assay [3] it was 51.3 nM; in assay [2] it was more than 10000 nM.

Regarding `COc1ccc(NS(=O)(=O)c2sc3ccc(Cl)cc3c2C)cc1N1CCN(C)CC1` [SB-258510], the Ki in assay [1] was determined as 0.76 nM; in assay [2] it was 1 nM.

Turning to `COc1ccc(NS(=O)(=O)c2ccc(I)cc2)cc1N1CCN(C)CC1` [SB-258585], the Ki is 2.29 nM in assay [1] and 11.2 nM in assay [2].

Take `CNS(=O)(=O)Cc1ccc2[nH]cc(CCN(C)C)c2c1` [Sumax]: the values for the Ki in assay [1], in assay [3] and in assay [2] were more than 10000 nM, more than 10000 nM and 5620 nM, respectively.

For the molecule `NCCc1c[nH]c2ccc(O)cc12` [[3H]-5-HT], the Ki came out at 79.4 nM in assay [1] and 95.5 nM in assay [2].

Take `CSc1ccc2c(c1)C(N1CCN(C)CC1)Cc1ccccc1S2` (stereo not drawn) [methanesulfonic acid;1-methyl-4-(3-methylsulfanyl-5,6-dihydrobenzo[b][1]benzothiepin-5-yl)piperazine]: in assay [2], the Ki was 0.56 nM.

In the case of `COc1ccc2[nH]cc(CCN)c2c1` [tryptamine, 5-Methoxy], the affinity in assay [1], expressed as Ki, was 22.4 nM.
